In PMC4170002 (Journal of immunology (Baltimore, Md. : 1950), 2014):
Where “and” joins values, the source holds several entries; their conditions need not be identical. Equal entries are not always repeated. Entries after “also recorded” stand apart in the source; their conditions may differ.

Tests used:
[1] = molecular target: T1, TYK2 (Homo sapiens, UniProt P29597); assay: 33P-ATP kinase assay, TYK2; assay type: biochemical; settings: read-out: IC50 TYK2; 33P-ATP assay, 10 μM ATP
[2] = molecular target: T2, JAK1 (Homo sapiens, UniProt P23458); assay: 33P-ATP kinase assay, JAK1; assay type: biochemical; settings: read-out: IC50 JAK1; 33P-ATP assay, 10 μM ATP
T2 sequence (P23458 whole entry): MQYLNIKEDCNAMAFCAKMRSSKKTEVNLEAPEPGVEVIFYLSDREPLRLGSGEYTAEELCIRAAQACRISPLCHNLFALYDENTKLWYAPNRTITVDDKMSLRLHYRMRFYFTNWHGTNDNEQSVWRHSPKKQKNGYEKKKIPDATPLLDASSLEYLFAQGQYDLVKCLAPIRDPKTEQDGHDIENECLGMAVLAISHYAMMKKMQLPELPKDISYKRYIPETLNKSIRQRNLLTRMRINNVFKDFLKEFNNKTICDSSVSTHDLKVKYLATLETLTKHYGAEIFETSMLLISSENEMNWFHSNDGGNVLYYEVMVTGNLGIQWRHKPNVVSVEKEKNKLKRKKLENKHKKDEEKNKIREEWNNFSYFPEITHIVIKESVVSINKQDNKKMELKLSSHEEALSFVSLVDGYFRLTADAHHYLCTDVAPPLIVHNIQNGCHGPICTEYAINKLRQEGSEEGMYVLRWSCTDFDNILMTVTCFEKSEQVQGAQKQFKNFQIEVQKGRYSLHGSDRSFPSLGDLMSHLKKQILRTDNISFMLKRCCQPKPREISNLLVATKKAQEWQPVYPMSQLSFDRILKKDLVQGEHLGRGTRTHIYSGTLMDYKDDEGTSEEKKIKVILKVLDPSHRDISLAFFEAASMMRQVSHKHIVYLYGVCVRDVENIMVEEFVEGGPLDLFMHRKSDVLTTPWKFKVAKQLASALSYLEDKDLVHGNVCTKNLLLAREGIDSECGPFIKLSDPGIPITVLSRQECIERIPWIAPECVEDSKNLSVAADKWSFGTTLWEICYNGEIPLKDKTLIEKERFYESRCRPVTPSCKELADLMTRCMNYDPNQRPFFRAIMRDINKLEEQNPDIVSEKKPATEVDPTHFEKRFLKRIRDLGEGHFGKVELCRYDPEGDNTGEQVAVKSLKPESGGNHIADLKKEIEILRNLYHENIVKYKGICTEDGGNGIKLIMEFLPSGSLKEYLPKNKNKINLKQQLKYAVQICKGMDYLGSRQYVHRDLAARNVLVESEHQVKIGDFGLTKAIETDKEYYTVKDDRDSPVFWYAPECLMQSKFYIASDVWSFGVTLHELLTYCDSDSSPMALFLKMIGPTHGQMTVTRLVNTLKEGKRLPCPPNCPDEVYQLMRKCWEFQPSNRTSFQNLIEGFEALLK

[3] = molecular target: T3, JAK3 (Homo sapiens, UniProt P52333); assay: 33P-ATP kinase assay, JAK3; assay type: biochemical; settings: read-out: IC50 JAK3; 33P-ATP assay, 10 μM ATP
T3 sequence (P52333 1-1124): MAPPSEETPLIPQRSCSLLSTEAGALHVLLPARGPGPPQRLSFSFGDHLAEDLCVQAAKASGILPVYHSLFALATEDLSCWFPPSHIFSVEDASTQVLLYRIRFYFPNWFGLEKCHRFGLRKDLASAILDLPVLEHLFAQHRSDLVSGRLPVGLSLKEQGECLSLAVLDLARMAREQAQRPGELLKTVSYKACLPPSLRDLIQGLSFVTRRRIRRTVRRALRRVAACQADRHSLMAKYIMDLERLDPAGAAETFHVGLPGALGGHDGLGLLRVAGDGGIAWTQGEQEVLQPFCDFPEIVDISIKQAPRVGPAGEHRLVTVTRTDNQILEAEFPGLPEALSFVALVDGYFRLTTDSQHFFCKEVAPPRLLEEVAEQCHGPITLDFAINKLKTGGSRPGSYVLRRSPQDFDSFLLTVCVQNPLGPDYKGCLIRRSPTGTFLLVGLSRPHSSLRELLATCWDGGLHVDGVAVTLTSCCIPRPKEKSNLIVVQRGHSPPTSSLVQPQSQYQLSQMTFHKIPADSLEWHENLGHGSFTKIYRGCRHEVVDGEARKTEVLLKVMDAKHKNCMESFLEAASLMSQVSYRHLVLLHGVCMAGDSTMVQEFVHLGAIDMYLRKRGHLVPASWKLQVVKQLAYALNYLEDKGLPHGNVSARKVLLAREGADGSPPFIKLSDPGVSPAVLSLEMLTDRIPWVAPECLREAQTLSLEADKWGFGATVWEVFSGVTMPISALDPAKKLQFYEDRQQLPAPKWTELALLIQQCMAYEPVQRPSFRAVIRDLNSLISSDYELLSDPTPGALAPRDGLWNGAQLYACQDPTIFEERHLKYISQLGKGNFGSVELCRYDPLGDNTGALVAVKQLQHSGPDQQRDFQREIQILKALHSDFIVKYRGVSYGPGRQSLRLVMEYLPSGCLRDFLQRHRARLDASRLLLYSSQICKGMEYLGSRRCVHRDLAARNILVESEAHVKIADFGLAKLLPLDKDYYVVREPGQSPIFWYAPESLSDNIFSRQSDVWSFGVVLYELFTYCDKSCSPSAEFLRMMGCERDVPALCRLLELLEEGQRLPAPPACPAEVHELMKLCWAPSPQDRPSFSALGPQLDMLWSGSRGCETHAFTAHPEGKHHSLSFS

[4] = molecular target: T1, TYK2; assay: IL-12-induced pSTAT4 in NK-92 cells; assay type: cell-based; settings: read-out: IC50 TYK2, pSTAT (cell lines), IL-12, pSTAT4
[5] = molecular target: T2, JAK1; assay: IL-6-induced pSTAT3 in TF-1 cells; assay type: cell-based; settings: read-out: IC50 JAK1, pSTAT (cell lines), IL-6, pSTAT3
[6] = molecular target: T1, TYK2; assay: IL-12-induced pSTAT4 in primary CD4+ cells; assay type: cell-based; settings: read-out: IC50 TYK2, pSTAT (primary cells), IL-12, pSTAT4
[7] = molecular target: T2, JAK1; assay: IL-6-induced pSTAT3 in primary CD4+ cells; assay type: cell-based; settings: read-out: IC50 JAK1, pSTAT (primary cells), IL-6, pSTAT3
[8] = molecular target: T3, JAK3; assay: IL-2-induced pSTAT5 in PBMCs; assay type: cell-based; settings: read-out: IC50 JAK3, pSTAT (primary cells), IL-2, pSTAT5
[9] = system: IL-22 signaling; assay: IL-22-induced pSTAT3 in HT-29 cells; assay type: cell-based, human
[10] = system: IL-12 signaling; assay: IL-12-induced IFN-γ production in PBMCs; assay type: cell-based; settings: human PBMCs, 10 ng/mL IL-12, 24 hours
[11] = system: IFN-α signaling; assay: HEK-BLUE IFN-α/β SEAP reporter assay; assay type: cell-based; settings: HEK-BLUE IFN-α/β cells, 200 U IFN-α, 24 hours
[12] = system: Splenic CD4+ cells; assay: T helper cell development; assay type: cell-based, mouse; settings: 1 μM, 4 days; for IFN-γ production in Th1 cells: Th1 conditions; for IL-4 in Th2 cultures: Th2 conditions; for Foxp3+ cells under Th17-skewing conditions / percent of IL-17+ cells: Th17-skewing conditions; for development of iTregs: iTreg conditions
[13] = system: CD4+ T cells; assay: CD4+ T cell proliferation; assay type: cell-based, mouse; settings: anti-CD28/anti-TCR, 4 days
[14] = Mouse liver microsome stability; assay type: in vitro ADME; settings: 0.5 μM
[15] = Caco-2 permeability; assay type: in vitro ADME; settings: 5 μM, pH 7.4
[16] = In vivo pharmacokinetics in CD-1 mice; parameters: species or system mouse; settings: for Cmax or Co: CD-1 mice
[17] = system: IL-12 signaling in vivo; assay: IL-12/IL-18-induced serum IFN-γ in vivo; parameters: species or system mouse; settings: 60 mg/kg, 30 minutes prior to IL-12/IL-18, vs vehicle
[18] = system: IL-22 signaling; assay: IL-22-induced Serum Amyloid A; assay type: in vivo, mouse; settings: 50 mg/kg p.o., C57BL/6 mice, 10 μg IL-22, 6 hours, vs vehicle
[19] = system: imiquimod-induced dermatitis; assay: Imiquimod-induced psoriasis-like dermatitis; assay type: in vivo
[20] = system: non-JAK kinases; assay: Kinome analysis; assay type: biochemical; settings: 100 nM
[21] = molecular target: T1, TYK2; assay: TR-FRET STAT3 phosphorylation assay, TYK2; settings: read-out: IC50 TYK2, 10 μM ATP, GFP-STAT3
[22] = molecular target: T2, JAK1; assay: TR-FRET STAT3 phosphorylation assay, JAK1; settings: read-out: IC50 JAK1, 10 μM ATP, GFP-STAT3
[23] = molecular target: T3, JAK3; assay: TR-FRET STAT3 phosphorylation assay, JAK3; settings: read-out: IC50 JAK3, 10 μM ATP, GFP-STAT3
[24] = 50 mg/kg p.o. twice daily, back skin
[25] = 50 mg/kg, qPCR, vs wild type and TYK2 mutant mice

T1 sequence (P29597 whole entry): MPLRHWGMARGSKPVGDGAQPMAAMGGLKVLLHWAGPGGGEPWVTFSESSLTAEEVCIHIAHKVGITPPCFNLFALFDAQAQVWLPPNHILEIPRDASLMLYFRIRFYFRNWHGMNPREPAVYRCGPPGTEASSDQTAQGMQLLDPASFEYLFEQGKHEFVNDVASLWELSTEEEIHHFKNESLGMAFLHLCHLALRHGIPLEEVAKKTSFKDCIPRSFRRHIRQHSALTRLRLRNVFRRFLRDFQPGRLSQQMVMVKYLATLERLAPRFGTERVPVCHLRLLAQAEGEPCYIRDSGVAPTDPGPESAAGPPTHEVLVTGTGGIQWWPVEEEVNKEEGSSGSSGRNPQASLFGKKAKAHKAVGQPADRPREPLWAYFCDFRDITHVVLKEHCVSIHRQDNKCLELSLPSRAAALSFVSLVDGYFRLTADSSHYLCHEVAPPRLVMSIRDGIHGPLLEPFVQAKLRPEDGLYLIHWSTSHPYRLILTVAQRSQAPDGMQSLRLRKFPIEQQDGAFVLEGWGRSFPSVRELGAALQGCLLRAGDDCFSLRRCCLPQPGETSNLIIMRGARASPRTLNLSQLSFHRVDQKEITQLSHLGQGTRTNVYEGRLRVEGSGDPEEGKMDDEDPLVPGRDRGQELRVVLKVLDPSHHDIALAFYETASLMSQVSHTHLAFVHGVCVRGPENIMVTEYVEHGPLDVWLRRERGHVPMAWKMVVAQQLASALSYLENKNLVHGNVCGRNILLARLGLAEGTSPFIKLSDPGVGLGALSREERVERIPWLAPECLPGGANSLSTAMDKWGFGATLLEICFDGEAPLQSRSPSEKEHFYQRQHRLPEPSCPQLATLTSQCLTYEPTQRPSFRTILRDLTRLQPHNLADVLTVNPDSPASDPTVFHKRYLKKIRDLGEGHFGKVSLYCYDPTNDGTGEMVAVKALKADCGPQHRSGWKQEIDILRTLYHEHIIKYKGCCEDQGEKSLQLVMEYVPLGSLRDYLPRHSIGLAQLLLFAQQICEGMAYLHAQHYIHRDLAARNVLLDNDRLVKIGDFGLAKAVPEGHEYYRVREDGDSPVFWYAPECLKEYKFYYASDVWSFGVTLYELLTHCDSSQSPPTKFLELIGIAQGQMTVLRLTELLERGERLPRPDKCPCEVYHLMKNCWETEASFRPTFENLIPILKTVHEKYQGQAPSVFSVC

## NC(=O)c1nc(-c2c(F)cccc2Cl)oc1Nc1ccc(C(=O)N2CCOCC2)cc1 [SAR-20347]
[1]
  IC50: 0.6 ± 0.1 nM
[2]
  IC50: 23 ± 19 nM
[3]
  IC50: 41 ± 11 nM
[4]
  IC50: 126 nM
[5]
  IC50: 345 nM
[6]
  IC50: 107 nM
[7]
  IC50: 423 nM
[8]
  IC50: 1610 nM
[9]; 10 μM
  inhibition of STAT3 phosphorylation: 94%
[9]; read-out: IC50 IL-22-induced pSTAT3, 10 ng/mL IL-22, 15 minutes
  IC50: 148 nM
[10]
  inhibition of IL-12 induced IFN-γ production: dose-dependent inhibition of IFN-γ production; also recorded: complete inhibition
[11]
  inhibition of SEAP production: dose-dependently inhibited the production of SEAP
[12]
  IFN-γ production in Th1 cells: potently blocked IFN-γ production
  IL-4 in Th2 cultures: capable of reducing IL-4
  Foxp3+ cells under Th17-skewing conditions: dramatic increase in Foxp3+ cells
  percent of IL-17+ cells: reduces the percent of IL-17+cells
  development of iTregs: did not alter the development of iTregs
[13]
  CD4+ T cell proliferation: inhibited proliferation to a comparable extent
[13]; two-way ANOVA
  doses significantly decreasing proliferation compared to 0 μM (DMSO): ≥ 0.315 µM
[14]
  clearance rate in mouse liver microsomes: 26 µL/min/mg
  half-life in mouse liver microsomes: 52.7 min
[15]
  Caco-2 AB: BA: 1.3
  Caco-2 permeability: good permeability
[16]; 1 mg/kg (i.v.)
  AUC0-8h: 305 ng/h/mL
  Cl: 52 mL/min/kg and 52.1 mL/min/kg
  T1/2: 162 min
  Cmax or Co: 433 ng/mL
[16]; 10 mg/kg (p.o.)
  AUC0-8h: 2131 ng/h/mL
  F: 69.8%
  T1/2: 144 min
  Tmax: 24 min
  Cmax or Co: 1343 ng/mL
[16]; 50 mg/kg (p.o.)
  AUC0-8h: 18740 ng/h/mL
  T1/2: 168 min
  Tmax: 30 min
  Cmax or Co: 6273 ng/mL
[16]; mice
  maximum serum concentration (Tmax): 30 min
[17]
  inhibition of production of IFN-γ in the serum: 91%
[18]
  decrease of SAA levels: 45%
[19]; 50 mg/kg p.o. twice daily
  gross toxicity: no gross toxicity
[19]; [24]
  Ki67 staining: significantly reduced
  histological score: significantly reduced
  keratinocyte cell numbers: significantly reduced
[19]; 50 mg/kg p.o. twice daily, vs TYK2 mutant or vehicle-treated wild type mice
  scaling and redness (clinical score): markedly reduced scaling and redness
[19]; 50 mg/kg, qPCR
  IL-2 expression levels in the skin: did not affect
  IL-10 expression levels in the skin: did not affect
  S100A8 gene expression in the skin: significantly decreased
  S100A9 gene expression in the skin: significantly decreased
  defensin β1 gene expression in the skin: significantly decreased
[19]; [25]
  IL-6 mRNA expression in the skin: significantly reduced expression
  IL-17 mRNA expression in the skin: significantly reduced expression
  IL-20 mRNA expression in the skin: significantly reduced expression
  IL-22 mRNA expression in the skin: significantly reduced expression
  IL-23 mRNA expression in the skin: significantly reduced expression
  TNF mRNA expression in the skin: significantly reduced expression
[19]; 50 mg/kg, skin IHC
  IL-17 production (average signal intensity): significantly reduced IL-17 production
  Vγ3 expression (average signal intensity): significantly lower
  number of CD4+ cells in skin: not affected
[20]
  inhibitory activity towards non-JAK kinases: comparable to the previously established values for tofacitinib and ruxolitinib
[21]
  IC50: 13 ± 3 nM
[22]
  IC50: 59 ± 43 nM
[23]
  IC50: 1440 ± 630 nM

## C[C@@H]1CCN(C(=O)CC#N)C[C@@H]1N(C)c1ncnc2[nH]ccc12 [Tofacitinib, reference compound]
[12]
  IFN-γ production in Th1 cells: potently blocked IFN-γ production
  IL-4 in Th2 cultures: capable of reducing IL-4
  Foxp3+ cells under Th17-skewing conditions: no effect on Th17 skewing or change in the number of Foxp3+ cells
  percent of IL-17+ cells: no effect on Th17 skewing
  development of iTregs: significantly reduced iTreg development
